Patent publication US20170045513A1, “METHODS OF DIAGNOSING CELIAC DISEASE USING IP-10” (ImmusanT, Inc., priority 2014, published 2017)
Non-standard residues stand in square brackets, D forms with d. pGlu = O=C1CC[C@@H](C(=O)O)N1

What was measured:
Assay type in all cases: cell-based, human
gluten-reactive T cells [1] = test: 96-well plate whole blood cytokine release, IFNγ by MAGPIX multiplex bead assay; settings: for Percent of maximal response to individual gluten peptides, IFNg: after oral gluten challenge; for IFNγ WB MAGPIX % max Mean: n = 8, blood after oral gluten challenge, individual peptides 5 μM (Peptide 2* of P14, Pepscan: 10 μg/mL (5.45 μM))
gluten-reactive T cells [2] = test: 96-well plate whole blood cytokine release, IP-10 by MAGPIX multiplex bead assay; settings: for Percent of maximal response to individual gluten peptides, IP-10: after oral gluten challenge; for IP-10 WB MAGPIX % max Mean: n = 10, blood after oral gluten challenge, individual peptides 5 μM (Peptide 2* of P14, Pepscan: 10 μg/mL (5.45 μM))
gluten-reactive T cells [3] = test: Overnight IFNγ ELISpot assay with fresh PBMC; settings: for Percent of maximal response to individual gluten peptides, ELISp: after oral gluten challenge; for IFNγ ELISpot % max Mean: n = 5, blood after oral gluten challenge, individual peptides 5 μM (Peptide 2* of P14, Pepscan: 10 μg/mL (5.45 μM))
In short: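 Read-out is IFNγ spot-forming units per well, counted automatically after overnight culture of fresh PBMC (0.4 million/well) with single peptides (duplicate) or pools (triplicate). Donors: HLA-DQ2.5+ celiac patients on gluten-free diet, bled pre- and day 6 after 3-day oral gluten challenge.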

[4] = whole blood incubations after oral gluten challenge

Row | Substance | Percent of maximal response to individual gluten peptides, IFNg (gluten-reactive T cells [1]; Subject 2, Max. 116 pg/mL) | Percent of maximal response to individual gluten peptides, IFNg (gluten-reactive T cells [1]; Subject 3, Max. 799 pg/mL) | Percent of maximal response to individual gluten peptides, IFNg (gluten-reactive T cells [1]; Subject 4, Max. 136 pg/mL) | Percent of maximal response to individual gluten peptides, IFNg (gluten-reactive T cells [1]; Subject 6, Max. 72 pg/mL) | Percent of maximal response to individual gluten peptides, IFNg (gluten-reactive T cells [1]; Subject 7, Max. 17 pg/mL) | Percent of maximal response to individual gluten peptides, IFNg (gluten-reactive T cells [1]; Subject 8, Max. 47 pg/mL) | Percent of maximal response to individual gluten peptides, IFNg (gluten-reactive T cells [1]; Subject 9, Max. 67 pg/mL) | Percent of maximal response to individual gluten peptides, IFNg (gluten-reactive T cells [1]; Subject 10, Max. 229 pg/mL) | IFNγ WB MAGPIX % max Mean (gluten-reactive T cells [1]) [% max] | Percent of maximal response to individual gluten peptides, IP-10 (gluten-reactive T cells [2]; Subject 1, Max. 2331 pg/mL) | Percent of maximal response to individual gluten peptides, IP-10 (gluten-reactive T cells [2]; Subject 2, Max. 3646 pg/mL) | Percent of maximal response to individual gluten peptides, IP-10 (gluten-reactive T cells [2]; Subject 3, Max. 9492 pg/mL) | Percent of maximal response to individual gluten peptides, IP-10 (gluten-reactive T cells [2]; Subject 4, Max. 9463 pg/mL) | Percent of maximal response to individual gluten peptides, IP-10 (gluten-reactive T cells [2]; Subject 5, Max. 9336 pg/mL) | Percent of maximal response to individual gluten peptides, IP-10 (gluten-reactive T cells [2]; Subject 6, Max. 5863 pg/mL) | Percent of maximal response to individual gluten peptides, IP-10 (gluten-reactive T cells [2]; Subject 7, Max. 2330 pg/mL) | Percent of maximal response to individual gluten peptides, IP-10 (gluten-reactive T cells [2]; Subject 8, Max. 4019 pg/mL) | Percent of maximal response to individual gluten peptides, IP-10 (gluten-reactive T cells [2]; Subject 9, Max. 8349 pg/mL) | Percent of maximal response to individual gluten peptides, IP-10 (gluten-reactive T cells [2]; Subject 10, Max. 8922 pg/mL) | IP-10 WB MAGPIX % max Mean (gluten-reactive T cells [2]) [% max] | other results
1 | (pE)PEQPIPEQPQPYPQQ-amide ([pGlu]PEQPIPEQPQPYPQQ-NH2; SMILES CC[C@H](C)[C@H](NC(=O)[C@@H]1CCCN1C(=O)[C@H](CCC(N)=O)NC(=O)[C@H](CCC(=O)O)NC(=O)[C@@H]1CCCN1C(=O)[C@@H]1CCC(=O)N1)C(=O)N1CCC[C@H]1C(=O)N[C@@H](CCC(=O)O)C(=O)N[C@@H](CCC(N)=O)C(=O)N1CCC[C@H]1C(=O)N[C@@H](CCC(N)=O)C(=O)N1CCC[C@H]1C(=O)N[C@@H](Cc1ccc(O)cc1)C(=O)N1CCC[C@H]1C(=O)N[C@@H](CCC(N)=O)C(=O)N[C@@H](CCC(N)=O)C(N)=O) [Peptide 3] | 35 % of max | 92 % of max | 66 % of max | 63 % of max | 6 % of max | 89 % of max | 60 % of max | 81 % of max | 62 | 51 % of max | 14 % of max | ≥ 100 % of max | ≥ 100 % of max | 53 % of max | 43 % of max | 5 % of max | 100 % of max | 85 % of max | ≥ 100 % of max | 65 | whole blood IFNγ release relative to that stimulated by Peptide 14 (gluten-reactive T cells [1]; [4]): one-third less; whole blood IP-10 release relative to that stimulated by Peptide 14 (gluten-reactive T cells [2]; [4]): one-quarter less; IFNγ ELISpot response relative to Peptide 14 5 μM (gluten-reactive T cells [3]; Peptide 3 10 μg/mL (5.3 μM)): only one-half; Percent of maximal response to individual gluten peptides, ELISp (gluten-reactive T cells [3]; Subject 3, Max. 18 SFU): 50 % of max; Percent of maximal response to individual gluten peptides, ELISp (gluten-reactive T cells [3]; Subject 4, Max. 36 SFU): 83 % of max; Percent of maximal response to individual gluten peptides, ELISp (gluten-reactive T cells [3]; Subject 6, Max. 16 SFU): 69 % of max; Percent of maximal response to individual gluten peptides, ELISp (gluten-reactive T cells [3]; Subject 8, Max. 17 SFU): 53 % of max; Percent of maximal response to individual gluten peptides, ELISp (gluten-reactive T cells [3]; Subject 10, Max. 11 SFU): 9 % of max; IFNγ ELISpot % max Mean (gluten-reactive T cells [3]): 53 % max
2 | (pE)PQPYPEQPQPFPQQ-amide ([pGlu]PQPYPEQPQPFPQQ-NH2; SMILES NC(=O)CC[C@H](NC(=O)[C@H](CCC(N)=O)NC(=O)[C@@H]1CCCN1C(=O)[C@H](Cc1ccccc1)NC(=O)[C@@H]1CCCN1C(=O)[C@H](CCC(N)=O)NC(=O)[C@@H]1CCCN1C(=O)[C@H](CCC(N)=O)NC(=O)[C@H](CCC(=O)O)NC(=O)[C@@H]1CCCN1C(=O)[C@H](Cc1ccc(O)cc1)NC(=O)[C@@H]1CCCN1C(=O)[C@H](CCC(N)=O)NC(=O)[C@@H]1CCCN1C(=O)[C@@H]1CCC(=O)N1)C(N)=O) [Peptide 8] | 35 % of max | 24 % of max | 39 % of max | 6 % of max | 0 % of max | 42 % of max | 5 % of max | 45 % of max | 25 | 0 % of max | 5 % of max | ≥ 100 % of max | ≥ 100 % of max | 45 % of max | 2 % of max | 0 % of max | 39 % of max | 31 % of max | 94 % of max | 42 | Percent of maximal response to individual gluten peptides, ELISp (gluten-reactive T cells [3]; Subject 3, Max. 18 SFU): 44 % of max; Percent of maximal response to individual gluten peptides, ELISp (gluten-reactive T cells [3]; Subject 4, Max. 36 SFU): 64 % of max; Percent of maximal response to individual gluten peptides, ELISp (gluten-reactive T cells [3]; Subject 6, Max. 16 SFU): 31 % of max; Percent of maximal response to individual gluten peptides, ELISp (gluten-reactive T cells [3]; Subject 8, Max. 17 SFU): 18 % of max; Percent of maximal response to individual gluten peptides, ELISp (gluten-reactive T cells [3]; Subject 10, Max. 11 SFU): 27 % of max; IFNγ ELISpot % max Mean (gluten-reactive T cells [3]): 37 % max
